Results: US5594144A, “Tropolone derivatives and pharmaceutical composition thereof for preventing and treating ischemic diseases” (The Upjohn Company, priority 1990, dated 1997)

What was measured:
[1] = system: Brain microsomal fractions; assay: in vitro Anti-lipid peroxidation effect (TBAR production, Fe3+-ADP/NADPH); type: biochemical, rat (SD strain, male)
Experimental: 1. in vitro Anti-lipid peroxidation effect
Brain microsomal fractions were prepared from male rats of SD strain, and a portion (0.2 mg protein) was incubated at 37° C. for 15 minutes with a mixture of Fe^3+ (0.1 mM)--ADP (0.5 mM) in the presence or absence of the test compound, in final volume of 1 ml of 10 mM HEPES, 150 mM KCl, 0.2 mM NADPH, pH 7.4. After incubation, 1.5 ml of TCA-TBA-HCl reagent (16.7% trichloroacetic acid, 0.4% thiobarbituric acid, 0.278N hydrochloric acid) was added and the reaction mixture was heated in a boiling water for 15 minutes. After cooling in ice-bath, the reaction mixture was centrifuged, and the absorbance of the supernatant at 535 nm was measured. The amount of thiobarbituric acid reactive substance (TBAR) was obtained by calculation using an extinction coefficient of 1.56×10^5 […]. […] The results are shown in Table 1A for compounds of the formulas IA, IB, and IC, respectively. The compounds with highest inhibition rate have the greatest anti-lipid peroxidation effect.

[2] = system: pig right coronary artery; assay: in vitro Ca-antagonism (high K+ induced 45Ca-influx); type: cell-based; settings: Sus scrofa, K+ 75 mM
Experimental: 2. in vitro Ca-antagonism
A strip of pig right coronary artery was depolarized with high K^+ (75 mM) for 30 minutes to induce voltage dependent ^45 Ca-influx. The extracellular ^45 Ca was chelated by adding EGTA and removed by washing, then the strip was lysed at 100° C. ^45 Ca in this lysate was measured as intracellular ^45 Ca by a scintillation counter. The concentration of the test compound was 10^-7, 10^-6, 10^-5 M, and applied until depolarization by K^+ was completed. Ratio of inhibition at various concentrations of the test compounds for increasing the intracellular ^45 Ca by K^+ was determined. The compound with high inhibition ratio has strong Ca-antagonism.

Row | SMILES | Anti-Lipid Peroxidation (% inhibition) 10 μM [1] | Anti-Lipid Peroxidation (% inhibition) 50 μM [1] | inhibition at 10 µM [2]
1 | COc1cc(C(C)C)ccc(C(c2ccccc2)N2CCN(C(c3ccccc3)c3ccc(Cl)cc3)CC2)c1=O (stereo not drawn) [Compound 3A, 7-{1-[4-(4-chlorobenzhydryl)piperazinomethyl]-α-phenyl}-4-isopropyl-2-methoxy-2,4,6-cycloheptatrien-1-one] | 13.8% | 16.3% | 0%
2 | COc1cc(C(C)C)ccc(C(C)N2CCN(C(c3ccccc3)c3ccc(Cl)cc3)CC2)c1=O (stereo not drawn) [Compound 4A, 7-{1-[4-(4-chlorobenzhydryl)]piperazinomethyl-α-methyl-}-4-isopropyl-2-methoxy-2,4,6-cycloheptatrien-1-one] | 25.8% | 75.1% | 45%
3 | CCN(CCN(C)C)c1cc(C(C)C)ccc(CN2CCN(C(c3ccc(F)cc3)c3ccc(F)cc3)CC2)c1=O [Compound 6C, 7-[4-(4,4'-difluorobenzhydryl)piperazino-1-methyl]-2-(N-2-dimethylaminoethyl-N-ethylamino)-4-isopropyl-2,4,6-cycloheptatrien-1-one] | 35.9% | 91.5% | 87%
4 | CNCCNc1cc(C(C)C)ccc(CN2CCN(C(c3ccc(F)cc3)c3ccc(F)cc3)CC2)c1=O [Compound 3C, 7-[4-(4,4'-difluorobenzhydryl)piperazino-1-methyl]-4-isopropyl-2-(N-2-methylaminoethylamino)-2,4,6-cycloheptatrien-1-one] | 88.0% | 91.6% | 49%
5 | CCCCC(c1ccc(C(C)C)cc(OC)c1=O)N1CCN(C(c2ccccc2)c2ccc(Cl)cc2)CC1 (stereo not drawn) [Compound 5A] | 30.5% | 38.7% | 19%
6 | COc1ccc(C(c2ccc(Cl)cc2)N2CCN(Cc3ccc(C(C)C)cc(OC)c3=O)CC2)cc1 (stereo not drawn) [Compound 10A, 7-[4-(4-chloro-4'-methoxybenzhydryl)piperazin-1-methyl]-4-isopropyl-2-methoxy-2,4,6-cycloheptatrien-1-one] | 24.0% | 81.6% | 53%
7 | CCN(CC)CCNc1cc(C(C)C)ccc(CN2CCN(C(c3ccc(F)cc3)c3ccc(F)cc3)CC2)c1=O [Compound 7C, 2-(N-2-diethylaminoethylamino)-7-[4-(4,4'-difluorobenzhydryl)piperazino-1-methyl]-4-isopropyl-2,4,6-cycloheptatrien-1-one] | 21.3% | 90.4% | 67%
8 | CC(C)c1ccc(CN2CCN(C(c3ccc(F)cc3)c3ccc(F)cc3)CC2)c(=O)c(NCCNc2ncccn2)c1 [Compound 10C, 7-[4-(4,4'-difluorobenzhydryl)piperazino-1-methyl]-4-isopropyl-2-[N-2-(2-pyrimidylamino)ethylamino]-2,4,6-cycloheptatrien-1-one] | 46.3% | 92.5% | 65%
9 | COc1ccc(CCOc2cc(C(C)C)ccc(CN3CCN(C(c4ccc(F)cc4)c4ccc(F)cc4)CC3)c2=O)cc1OC [Compound 16A, 7-[4-(4,4'-difluorobenzhydryl)piperazino-1-methyl]-2-[2-(3,4-dimethoxyphenyl)ethoxy]-4-isopropyl-2,4,6-cycloheptatrien-1-one] | 19.1% | 19.1% | 52%
10 | CC(C)c1ccc(CN2CCN(C(c3ccc(F)cc3)c3ccc(F)cc3)CC2)c(=O)c(N2CCCCC2)c1 [Compound 17C, 7-[4-(4,4'-difluorobenzhydryl)piperazino-1-methyl]-4-isopropyl-2-piperidino-2,4,6-cycloheptatrien-1-one] | 32.4% | 44.1% | 53%
11 | CC(C)c1ccc(CN2CCN(C(c3ccc(F)cc3)c3ccc(F)cc3)CC2)c(=O)c(NCc2ccccn2)c1 [Compound 12C, 7-[4-(4,4'-difluorobenzhydryl)piperazino-1-methyl]-4-isopropyl-2-(N-2-pyridylmethylamino)-2,4,6-cycloheptatrien-1-one] | 86.4% | 89.3% | 47%
12 | CC(C)c1ccc(CN2CCN(C(c3ccc(F)cc3)c3ccc(F)cc3)CC2)c(=O)c(OCc2ccccc2)c1 [Compound 15A, 2-benzyloxy-7-[4-(4,4'-difluorobenzhydryl)piperazino-1-methyl]-4-isopropyl-2,4,6-cycloheptatrien-1-one] | 22.4% | 29.0% | 20%
13 | COc1cc(C(C)C)ccc(CN2CCN(C(c3ccccc3)c3ccc(C(F)(F)F)cc3)CC2)c1=O (stereo not drawn) [Compound 9A, 4-isopropyl-2-methoxy-7-[4-(4-trifluoromethylbenzhydryl)piperazino-1-methyl]-2,4,6-cycloheptatrien-1-one] | 29.2% | 88.1% | 45%
14 | CC(C)c1ccc(CN2CCN(C(c3ccc(F)cc3)c3ccc(F)cc3)CC2)c(=O)c(N2CCOCC2)c1 [Compound 18C, 7-[4-(4,4'-difluorobenzhydryl)piperazino-1-methyl]-4-isopropyl-2-morpholino-2,4,6-cycloheptatrien-1-one] | 26.7% | 41.2% | 84%
15 | CC(C)c1ccc(CN2CCN(C(c3ccc(F)cc3)c3ccc(F)cc3)CC2)c(=O)c(N(C)CCN(C)C)c1 [Compound 5C, 7-[4-(4,4'-difluorobenzhydryl)piperazino-1-methyl]-2-(N-2-dimethylaminoethyl-N-methylamino)-4-isopropyl-2,4,6-cycloheptatrien-1-one] | 32.2% | 90.6% | 94%
16 | CCNc1cccnc1N1CCN(c2cc(C(C)C)ccc(CN3CCN(C(c4ccc(F)cc4)c4ccc(F)cc4)CC3)c2=O)CC1 [Compound 20C, 7-[4-(4,4'-difluorobenzhydryl)piperazino-1-methyl]-2-[4-(3-ethylamino-2-pyridyl)piperazino]-4-isopropyl-2,4,6-cycloheptatrien-1-one] | 91.6% | 93.8% | 30%
17 | COc1cc(C(C)C)ccc(CN2CCN(C(c3ccc(C(F)(F)F)cc3)c3ccc(C(F)(F)F)cc3)CC2)c1=O [Compound 8A, 7-{4-[4,4'-di(trifluoromethyl)benzhydryl]piperazino-1-methyl}-4-isopropyl-2-methoxy-2,4,6-cycloheptatrien-1-one] | 32.3% | 51.8% | 27%
18 | COc1cc(C(C)C)ccc(CN2CCN(C(c3ccccc3)c3ccccc3)CC2)c1=O [Compound 6A, 7-(4-benzhydrylpiperazino-1-methyl)-4-isopropyl-2-methoxy-2,4,6-cycloheptatrien-1-one] | 15.9% | 63.2% | 100%
19 | COCCNc1cc(C(C)C)ccc(CN2CCN(C(c3ccc(F)cc3)c3ccc(F)cc3)CC2)c1=O [Compound 14C, 7-[4-(4,4'-difluorobenzhydryl)piperazino-1-methyl]-4-isopropyl-2-(N-2-methoxyethylamino)-2,4,6-cycloheptatrien-1-one] | 27.0% | 90.4% | 71%
20 | CC(C)c1ccc(CN2CCN(C(c3ccc(F)cc3)c3ccc(F)cc3)CC2)c(=O)c(NCCCN(C)C)c1 [Compound 2C, 7-[4-(4,4'-difluorobenzhydryl)piperazino-1-methyl]-2-(N-3-dimethylaminopropylamino)-4-isopropyl-2,4,6-cycloheptatrien-1-one] | 29.6% | 90.8% | 63%
21 | CC(C)c1ccc(CN2CCN(C(c3ccc(F)cc3)c3ccc(F)cc3)CC2)c(=O)c(NCCNCCN)c1 [Compound 8C, 2-[N-2-(N'-2-aminoethylamino)ethylamino]-7-[4-(4,4'-difluorobenzhydryl)piperazino-1-methyl]-4-isopropyl-2,4,6-cycloheptatrien-1-one] | 33.1% | 92.2% | 60%
22 | CCCCOc1cc(C(C)C)ccc(CN2CCN(C(c3ccc(F)cc3)c3ccc(F)cc3)CC2)c1=O [Compound 13A, 2-butoxy-7-[4-(4,4'-difluorobenzhydryl)piperazino-1-methyl]-4-isopropyl-2,4,6-cycloheptatrien-1-one] | 23.1% | 27.4% | 38%
